Measured values from patent publication US20120196793A1, “BIOMARKERS FOR IAP INHIBITOR COMPOUNDS” (priority 2009, published 2012).

How the values were obtained:
TNFα [1] = assay: TNFα ELISA in SK-OV-3 cells with shRNA knockdown of NFkB pathway nodes; type: cell-based, Human
Experimental: To elucidate this mechanism, nodes of the canonical and non-canonical NFkB pathways and are knocked down and induction of TNFα expression, a marker of NFkB activation, after treatment with the Smac mimetic compound Compound A, is assessed. […] Therefore, tumors with active or functional canonical NFkB signaling, as evidenced by TNFα expression or other markers of active NFkB signaling, are more likely to respond to Compound A.
On day one, SKOV cancer cells are plated into two 96-well, clear, flat bottom plates. All wells in row A contain 200 uL of media. All wells in rows B-G contain 5000 cells per well in 180 ul of RPMI media with 10% FBS and 1 ug/mL of puromycin. Plates are then incubated overnight for 18 hours at 37 C, 5% CO2. […] TNFα levels in the media are measured using the R&D Quantikine Human TNFalpha High Sensitivity ELISA assay, catalog number HSTA00D. […] The colorimetric readout is measured on a spectrometer at 490 nM within 30 minutes of adding the stop solution. Raw data is normalized to account for background noise, duplicate values are averaged and concentrations are calculated from a standard curve (FIG. 9). […] CTG measures the amount of ATP released from viable cells that can be measured by a luminescent plate reader. Cells with CTG are incubated for ten minutes at room temperature and read on a luminescent plate reader. […]

TNFα [2] = assay: TNFα ELISA of tumor lysates from orthotopic MDA-MB-231 xenografts after a single oral dose; type: in vivo, mice; conditions: 39 days after tumor cell implantation, mean tumor volume approximately 141 mm3
Experimental: To assess whether the induction of TNFα observed in the MDA-MB-231 breast tumor cell line translated to an in vivo setting, an experiment is performed in mice harboring orthotopically implanted MBA-MD-231 tumors.
A single oral dose of Compound A is administered 39 days following tumor cell implantation when mean tumor volumes reached approximately 141 mm3. Tumors are harvested from each animal, lysed, and analyzed by ELISA to determine TNFα concentrations.

TNFα [3] = assay: Secreted TNFα ELISA in a panel of cancer cell lines before and 24 hours after compound addition; type: cell-based, Human; conditions: sensitive vs insensitive cancer cell lines (3-day viability assays, up to 10 uM)
Experimental: To test whether the engagement of the TNFα signaling pathway is requisite for single agent activity in vitro, a panel of cancer cell lines is evaluated for sensitivity to Compound A while in parallel, secreted TNFα expression levels are assessed by ELISA before and 24 hours after compound addition. […] Increased basal TNFα levels also positively correlate with sensitivity to Compound A (FIG. 8).
On day one, cancer cells are plated into two 96-well, clear, flat bottom plates. All wells in row A contain 200 uL of media. All wells in rows B-G contain 5000 cells per well in 180 ul of RPMI media with 10% FBS. Plates are then incubated overnight for 18 hours at 37 C, 5% CO2. […] TNFα levels in the media are measured using the R&D Quantikine Human TNFα High Sensitivity ELISA assay, catalog number HSTA00D. […] The colorimetric readout is measured on a spectrometer at 490nM within 30 minutes of adding the stop solution. Raw data is normalized to account for background noise, duplicate values are averaged and concentrations are calculated from a standard curve (FIG. 8). […] CTG measures the amount of ATP released from viable cells that can be measured by a luminescent plate reader. Cells with CTG are incubated for ten minutes at room temperature and read on a luminescent plate reader. Raw data is normalized to account for background noise, duplicate values are averaged and percent control growth is calculated.

[4] = tested on: patient-derived tumor models representing both triple negative breast cancer and Non Small Cell Lung Carcinoma (NSCLC); assay: Single agent tumor growth inhibition (% T/C) in patient-derived xenograft models; type: in vivo, nude mice; conditions: 18 patient-derived tumor models
Source text: Patient-derived xenograft models in which human tumors are surgically resected then directly implanted and subsequently passaged in nude mice are potentially more clinically relevant than cell line models since there is no selective pressure for two dimensional growth on a plastic stratum.
Compound A has been tested for single agent activity in 18 patient-derived tumor models representing both triple negative breast cancer and Non Small Cell Lung Carcinoma (NSCLC) models. Tumor growth inhibition by Compound A is reported as % T/C (percent growth of tumors in mice treated with Compound A relative to the growth of tumors in Control vehicle treated mice). Complete regression of a tumor would be reported as −100% T/C, tumor stasis (no growth) would be reported as 0% T/C, and no effect would be reported as 100% T/C. […] Stasis (T/C≦40%) has been observed in 25% of primary models assessed.

[5] = tested on: MDA-MB-231 breast cancer cell line; assay: In vitro induction of TNFα, caspase activation and cell death in tumor cell lines; type: cell-based; conditions: in vitro assays, variety of tumor cell lines including MDA-MB-231

Q: `CN[C@@H](C)C(=O)N[C@H](C(=O)N1CCC[C@H]1c1nc(C(=O)c2ccc(F)cc2)cs1)C1CCCCC1` [Compound A, (S)—N—((S)-1-Cyclohexyl-2-{(S)-2-[4-(4-fluoro-benzoyl)-thiazol-2-yl]-pyrrolidin-1-yl}-2-oxo-ethyl)-2-methylamino-propionamide] was tested. Which “Compound A-mediated induction of TNFα after knockdown of RelB” value (TNFα [1]; SK-OV-3, shRNA-mediated knockdown of RelB (non-canonical NFkB pathway)) did it give?
A: does not impact

Q: What about the “Compound A-mediated TNF induction after knockdown of RelA” value (TNFα [1]; SK-OV-3 ovarian carcinoma cell line, shRNA-mediated knockdown of RelA (canonical NFkB pathway)) of the same molecule?
A: ablated TNF induction

Q: And the “increase in TNFα in MDA-MB-231 tumor lysates” value (TNFα [2])?
A: ~10 fold

Q: And the “induction of secreted TNFα” value (TNFα [3])?
A: induced TNF-alpha in sensitive but not insensitive cancer cell lines

Q: What about the “range of responses (% T/C)” value [4] of the same molecule?
A: from tumor regression to no effect

Q: What about the “share of primary models in which stasis (T/C≦40%) was observed” value [4] of the same molecule?
A: 25%

Q: What about the “induction of TNFα, activation of caspases and subsequent cell death” value [5] of the same molecule?
A: induces the induction of TNFα, activation of caspases and subsequent cell death
